For data set [1], the system named is NO production in BV2 microglial cell cultures treated with lipopolysachharide (LPS). In words: Inhibition of NO production in LPS-treated BV2 microglial cell cultures. Format: cell-based. The following applies: BV2 cells.
The next data set relates to BV2 microglial cells. In words: Cell viability assay. It is filed as cell-based.

As to `O=C(Nc1ccccc1F)[C@H]1C[C@@H]1c1cccc(F)c1` (racemic) [Compound 1a, N-(2-fluorophenyl)-2-(3-fluorophenyl) cyclopropane-1-carboxamide], the “anti-inflammatory potency compared to DFB (in words)” value in data set [1] was “decreased anti-inflammatory potency”. Still for that read-out and setting: the same measure for `O=C(Nc1ccc(F)cc1)[C@H]1C[C@@H]1c1cccc(F)c1` (racemic) [Compound 1b]: “decreased anti-inflammatory potency”. As for `O=C(Nc1ccccc1Cl)[C@H]1C[C@@H]1c1cccc(F)c1` (racemic) [Compound 1c], the “anti-inflammatory potency compared to DFB (in words)” value in data set [1] is on record as “decreased anti-inflammatory potency”. Consider `COc1cc(Br)ccc1NC(=O)[C@H]1C[C@@H]1c1cccc(F)c1` (racemic) [Compound 1d, N-(4-Bromo-2-methoxyphenyl)-2-(3-fluorophenyl)cyclopropane-1-carboxamide], for which the “BV2 cell toxicity / viability (in words)” value in the data set on BV2 microglial cells is reported as “excellent BV2 microglial cell viability”.

For `O=C(Nc1nc2ccccc2s1)[C@H]1C[C@@H]1c1cccc(F)c1` (racemic) [Compound 1e, N-(Benzo[d]thiazol-2-yl)-2-(3-fluorophenyl)cyclopropane-1-carboxamide], in data set [1], the “anti-inflammatory potency compared to DFB (in words)” value is reported as “superior potency to DFB”. Consider `O=C(Nc1nc2ccccc2[nH]1)[C@H]1C[C@@H]1c1cccc(F)c1` (racemic) [Compound 1f, N-(1H-benzo[d]imidazol-2-yl)-2-(3-fluorophenyl)cyclopropane-1-carboxamide], for which the “anti-inflammatory potency compared to DFB (in words)” value in data set [1] is recorded as “superior potency to DFB”.

Take `COc1cc(Br)ccc1NC(=O)[C@H]1C[C@@H]1c1cccc(Cl)c1` (racemic) [Compound 2d, N-(4-Bromo-2-methoxyphenyl)-2-(3-chlorophenyl)cyclopropane-1-carboxamide]: the “anti-inflammatory potency compared to DFB (in words)” value in data set [1] is listed as “decreased potency”.

`O=C(Nc1nc2ccccc2[nH]1)[C@H]1C[C@@H]1c1cccc(Cl)c1` (racemic) [Compound 2f]: the “anti-inflammatory potency compared to DFB (in words)” value in data set [1] is given as “improved potency”.

As to `O=C(N[C@H]1C[C@@H]1c1cccc(F)c1)c1cccc(F)c1` (racemic) [Compound 3a, 3-fluoro-N-(2-(3-fluorophenyl)cyclopropyl)benzamide], the “BV2 cell toxicity / viability (in words)” value with BV2 microglial cells is “excellent cell viability”. The same measure, in the same setting: the same measure for `O=C(N[C@H]1C[C@@H]1c1cccc(F)c1)c1cccc([N+](=O)[O-])c1` (racemic) [Compound 3c]: “significant BV2 cell toxicity”. For the compound `O=C(N[C@H]1C[C@@H]1c1cccc(F)c1)c1ccc([N+](=O)[O-])cc1` (racemic) [Compound 3d], in the data set on BV2 microglial cells, the “BV2 cell toxicity / viability (in words)” value is on record as “significant BV2 cell toxicity”.

The values are drawn from PMC4690453 (Bioorganic & medicinal chemistry letters, 2015).
